Patent US20140329832A1, “METABOLIC DEGRADATION INHIBITORS FOR ANTI-HYPERPROLIFERATIVE AGENTS” (CHILDRENS HOSPITAL LOS ANGELES, priority 2007, published 2014)

Key:
[1] = Effect of various dosages of ketoconazole on fenretinide levels in mouse plasma (Example 3, HPLC); format: in vivo; settings: NOD/SCID mice; ketoconazole 37, 75 or 150 mg/kg/day, nine doses, starting two days prior to fenretinide 180 mg/kg/day, five doses; all dose levels, P<0.05
Text: Animals were sacrificed four hours after the last drug dosing and levels of fenretinide measured in the blood plasma by a HPLC methodology.

[2] = nude mice bearing SMS-KCNR xenografts; ketoconazole 50 mg/kg/day, nine doses, starting two days prior to fenretinide 180 mg/kg/day, five doses
[3] = in vivo; settings: nude (nu/nu), mouse, 180 mg/kg/day
Experimental: The fluconazole dose approximately corresponded to a human equivalent dose of 100 mg/day for a 70 kg human. […] These doses are within the standard range of human treatment doses for both of these antifungal agents. Animals were sacrificed four hours after the last drug dosing and levels of fenretinide measured in the plasma by a HPLC methodology.

| effect on mean fenretinide level in plasma compared to controls [1] | effect on fenretinide levels in tumor tissue [2] | concentration at 4 h [3] [µM] | SMILES |
| --- | --- | --- | --- |
| significantly increased | increased | – | CC(=O)N1CCN(c2ccc(OCC3COC(Cn4ccnc4)(c4ccc(Cl)cc4Cl)O3)cc2)CC1 (stereo not drawn) [ketoconazole] |
| – | – | 12.6 | CC1=C(/C=C/C(C)=C/C=C/C(C)=C/C(=O)Nc2ccc(O)cc2)C(C)(C)CCC1 [fenretinide, N-(4-hydrophenyl) retinamide] |
